The values below come from publication PMC2361651 (British Journal of Cancer, 2005).

Data set [1] deals with KIT (the receptor for stem cell factor). Set-up: method as in Antonian et al, 2000; Smolich et al, 2001; Yee et al, 2002. As to conditions: ref Antonian et al, 2000; Smolich et al, 2001; Yee et al, 2002; cited from earlier work.
The test system of data set [2] is tumour vascular permeability. The data set can be described thus: DCE-MRI of tumour vascular permeability. To be noted: for increase in leakage space (Ve): final scan (median 35 days), soft-tissue sarcoma patient. The data set is classed as in vivo, human. As for the experimental part: All patients were asked to have a baseline DCE-MRI examination within the 7 days prior to receiving the study compound under study conditions as described above. Follow-up scans were performed on day 1 and then after 4 weeks of therapy. After the first three patients' examination, the protocol was amended to day 1, 2 weeks, 6 weeks and 6 weekly thereafter if the patient remained on study. All examinations were performed on a 1.5 T MRI system (Vision, Siemens Medical Systems, Erlangen, Germany) approximately 4 h after the commencement of the treatment infusion.
The image collection protocol comprised routine orthogonal T1- and T2-weighted images taken through the previously identified target lesion, to allow localisation and bi-dimensional tumour measurement. The dynamic imaging used a five-slice saturation recovery turbo fast low-angle shot sequence (SRTF) taken through the centre of the target lesion. Proton density-weighted images were acquired, followed by a series of T1-weighted images employing the same gain and image scaling factors. The sequential T1-weighted images were acquired every 9 s for 6.3 min (42 time points).
Gadopentetate dimeglumine (Magnevist Schering Health Care Limited, Burgess Hill, Sussex, UK) was injected intravenously using a mechanical power injector, through a peripherally placed cannula. This contrast was administered as a bolus after the third baseline data point was acquired at a dose of 0.1 mmol kg^−1 body weight. The use of the mechanical power injector allowed the contrast to be delivered within 10 s. The contrast injection was followed by a 20 ml flush of normal saline.
Using the resultant scanned images, two trained observers (AP, CH) blinded to the clinical outcome of the patients evaluated the patterns of enhancement within a designated region of interest. Contrast medium kinetic parameters were then derived for each pixel using MR Imaging Workbench software®. Quantitative and semiquantitative statistical analysis was then performed on these parameters using StatsDirect software (Research Solutions, Cambridge, UK).

Data set [3] in a line: Phase I safety and tolerability, twice weekly intravenous infusion.
The test system of data set [4] is treatment refractory solid tumours. In words: Tumour response (WHO response criteria). The data set is classed as in vivo, human. The text has this: The study protocol was approved by the Research Ethics Committee of the Royal […] Trust. Written informed consent was obtained from all participants. All patients had treatment refractory solid tumours and were required to have at least one tumour deposit suitable for DCE-MRI evaluation. A suitable lesion had to be ⩾2 cm in size and in an anatomical position not subject to significant respiratory excursion. […] Exclusion criteria included patients with a known history of allergy to radiologic contrast agents or to Cremophor®; a Karnovsky performance status of <60%; a history of myocardial infarction, severe or unstable angina within 6 months of the study; diabetes mellitus with clinical evidence of severe peripheral vascular disease or ulceration; a medical condition or device implant that would interfere with or prevent MRI scans; or a serious concomitant medical condition that could interfere with the participation in the study or interpretation of study results.

Details of data set [5]: method as in Fong et al, 1999. As to conditions: preclinical models, intracellular; ref Fong et al, 1999; cited from earlier work.
Setting [6] is: mid-treatment (2 weeks), one patient, squamous cell carcinoma nasopharynx, 110 mg m^−2.
The mark [7] stands for this setting: 27 patients treated, two not evaluable.

In the case of `Cc1cc(C)c(/C=C2\C(=O)Nc3ccccc32)[nH]1` [SU5416, Z-3-[(2,4-dimethylpyrrol-5-yl)methylidenyl]-2-indolinone], in data set [1], the “inhibition of KIT” value is “potent competitive inhibitor”. The “increase in leakage space (Ve)” value in data set [2] (48 mg m^−2) is 36.5%. Also, in data set [2] (final expansion cohort), the “increase in leakage space (Ve)” value is recorded as 34.5%. The “change in Ktrans” value in data set [2] (increase, day 1, one patient with metastatic melanoma (target lesion brain)) worked out at 91%. Moreover, in data set [2] (setting [6]), the “change in Ktrans” value is reported as −51.9% and the “change in Ve” value is recorded as −48.6%. In data set [3] (dose expansion cohort), the “pain or burning discomfort in tumour-related sites shortly after infusion, patients” value was “three”. Further, the “dysphonia, patients” value in data set [3] (therapy for 6 weeks or more, reversible over several months) was “Two”. In addition, the “Venous thrombotic events, patients” value in data set [3] (thrombosis of the inferior vena cava and a pulmonary embolism, differing dose levels) is recorded as “two”. Besides, the “recommended dose for future study” value in data set [3] (twice weekly intravenous infusion) stood at 145 mg m^−2. For the same compound, in data set [3] (twice weekly intravenous infusion, 48 to 190 mg m^−2), the maximum-tolerated dose result is on record as “not identified”. For the same compound, in data set [4] (setting [7]), the “patients with progressive disease as best response” value is 14 patients and the “patients with stable disease at 6 weeks” value is listed as 12 patients. Moreover, the “patients remaining on therapy for more than 12 weeks” value in data set [4] (haemangioendothelioma, ovarian and adrenocortical carcinoma) is given as “three”. In data set [5], the “time for which levels capable of target inhibition are maintained” value is over 48 h.
